Test results: article PMC5574609, “Potential role of an antimicrobial peptide, KLK in inhibiting lipopolysaccharide-induced macrophage inflammation” (PLoS ONE, 2017)
Each block holds one molecule with its values, some of them ahead of it. Bridge positions count the residues as written; N and C are the ends. Ends that are not written are not given here. Peptide text beside a SMILES is read from it.

Columns and labels:
Assay type in all cases: cell-based, murine
[1] = test system: NO production in LPS-stimulated RAW 264.7 cells; experiment: LPS-stimulated NO production (nitrite, Griess); details: peptide 1 µg/mL, LPS 1 µg/mL, 48 h, mean ± SD
Procedure: (§1) RAW 264.7 cells at 1×10^5 cells/well were stimulated with 1 μg/mL LPS (Escherichia coli 0111:B4; Sigma, St. Louis, MO, USA) in the presence or absence of various concentrations of the test peptide and then incubated at 37°C in 5% CO2 for 48 h. Indomethacin (10 μM; Sigma, St. Louis, MO, USA) was included as a positive control. Where appropriate, cells were pre-incubated with the test peptide for 1 h, and washed three times with sterile PBS before incubation with LPS (1 μg/mL; Sigma). Culture supernatant was collected and the nitrite (a stable breakdown product of NO) accumulated in culture supernatant was then determined by the Griess reagent system (Promega, Madison, USA). Briefly, 50 μL of culture supernatant was mixed with an equal volume of 1% sulfanilamide in 5% phosphoric acid. After incubation for 10 min at room temperature, 50 μL of 0.1% N-1-napthylethylenediamine dihydrochloride was added and incubated for another 10 min at room temperature. The absorbance was measured at 540 nm using a microplate reader (Rayto RT-2100C, China) and nitrite concentrations were determined using a sodium nitrite standard curve. The PGE2 levels in culture medium were quantified by enzyme-immunoassay (R&D Systems, Minneapolis, MN, USA) according to the manufacturer’s instructions.

[2] = test system: TNF-α production in LPS-stimulated RAW 264.7 cells; experiment: TNF-α production, sandwich ELISA; details: LPS 1 µg/mL, 72 h, mean ± SD
Procedure: (§2) The pro-inflammatory cytokines (IL-1β and TNF-α)were determined by sandwich enzyme-linked immunosorbent assay (ELISA). RAW 264.7 cells (1×10^5 cells/well) were seeded into a 96-well microtiter plate (Nunc™) and stimulated with LPS (1 μg/mL; Sigma) in the presence or absence of each peptide at different concentrations. After 72 h of incubation, the culture supernatant was collected and cytokine concentrations measured using ELISA MAX™ Deluxe Set (BioLegend, San Diego, CA, USA), following the manufacturer’s protocol.

[3] = test system: IL-1β production in LPS-stimulated RAW 264.7 cells; experiment: IL-1β production, sandwich ELISA; details: LPS 1 µg/mL, 72 h, mean ± SD
Procedure: as §2

[4] = test system: NO production in LPS-stimulated RAW 264.7 cells; experiment: Pre-treatment with or without wash, then LPS; NO by Griess; details: 10 µg/mL pre-treatment 1 h, washed, LPS 1 µg/mL 48 h
Procedure: as §1, with “Briefly, 50 μL of culture supernatant was mixed with an equal volume of 1% sulfanilamide in 5% phosphoric acid. After incubation for 10 min at room temperature, 50 μL of 0.1% N-1-napthylethylenediamine dihydrochloride was added and incubated for another 10 min at room temperature.” left out
To investigate whether the ability of KLK peptide to inhibit LPS-induced signaling was due to KLK-LPS binding, experiments were performed in which RAW 264.7 cells were pre-treated with the KLK peptide for 1 h and then thoroughly washed to remove exogenous peptide. The cells were subsequently stimulated with LPS and pro-inflammatory mediator (NO) measured in cell-free supernatant after 48 hr. […]

[5] = test system: PGE2 production in LPS-stimulated RAW 264.7 cells; experiment: PGE2 production, enzyme-immunoassay; details: LPS 1 µg/mL + indomethacin 10 µM, 48 h
Procedure: as §1, with “Sigma,” for “RAW 264.7 cells at 1×10^5 cells/well were stimulated with 1 μg/mL LPS (Escherichia coli 0111:B4; Sigma,”, “Where appropriate, cells were pre-incubated with the test peptide for 1 h, and washed three times with sterile PBS before incubation with LPS (1 μg/mL;” left out, “After incubation for 10 min at room temperature, 50 μL of 0.1% N-1-napthylethylenediamine dihydrochloride was added and incubated for another 10 min at room temperature.” left out

IC50 for TNF-α production [2]: 1.79 ± 0.01 µg/mL
Molecule: CKLKLLLLLKLKC (disulfide 1-13 (inferred)) [SSKLK, KLK with cysteine residues added to both N and C-terminal ends]
inhibitory rate of LPS-stimulated NO production [1]: 70.77 ± 1.55%

IC50 for IL-1β production [3]: 8.83 ± 1.31 µg/mL
IC50 for TNF-α production [2]: 0.91 ± 0.07 µg/mL
Molecule: CC(C)C[C@@H]1NC(=O)[C@H](CCCCN)NC(=O)[C@H](CC(C)C)NC(=O)[C@H](CC(C)C)NC(=O)[C@H](CC(C)C)NC(=O)[C@H](CC(C)C)NC(=O)[C@H](CC(C)C)NC(=O)[C@H](CCCCN)NC(=O)[C@H](CC(C)C)NC(=O)[C@H](CCCCN)NC(=O)[C@H](CCCCN)NC1=O [CYCKLK] (HELM PEPTIDE1{K.L.K.L.L.L.L.L.K.L.K}$PEPTIDE1,PEPTIDE1,1:R1-11:R2$$$V2.0)
inhibitory rate of LPS-stimulated NO production [1]: 79.26 ± 3.17%

Molecule: polymyxin B [PMB]
effect of removing exogenous compound by washing before LPS on NO inhibition [4]: significantly affected

Molecule: COc1ccc2c(c1)c(CC(=O)O)c(C)n2C(=O)c1ccc(Cl)cc1 [Indomethacin]
PGE2 ([5]; exp. 1): 783.5 pg/mL
PGE2 ([5]; exp. 2): 716 pg/mL
PGE2 ([5]; mean of n = 2): 749.7 pg/mL
